Data published in the NIST ThermoML archive (doi:10.1016/j.fluid.2014.07.036).

Test: refractive index (other wavelength) (dimensionless); xn = mol fraction of the nth substance listed
Details: 85 kPa, Liquid, Wavelength=632.8 nm, minimum deviation angle

CCCCCCCC[n+]1ccn(C)c1.F[B-](F)(F)F [1-methyl-3-octylimidazolium tetrafluoroborate] + CCCCCO
Details | refractive index
281.39 K, x1 = 0.012 | 1.4139
281.39 K, x1 = 0.339 | 1.4262
282.13 K, x1 = 0.014 | 1.4137
282.13 K, x1 = 0.33 | 1.4257
282.87 K, x1 = 0.015 | 1.4135
282.87 K, x1 = 0.32 | 1.4252
283.57 K, x1 = 0.018 | 1.4134
283.57 K, x1 = 0.315 | 1.4248
284.24 K, x1 = 0.019 | 1.4132
284.24 K, x1 = 0.305 | 1.4243
284.89 K, x1 = 0.02 | 1.413
284.89 K, x1 = 0.295 | 1.4238
285.51 K, x1 = 0.021 | 1.4128
285.51 K, x1 = 0.285 | 1.4233
286.09 K, x1 = 0.021 | 1.4126
286.09 K, x1 = 0.278 | 1.4229
286.64 K, x1 = 0.023 | 1.4125
286.64 K, x1 = 0.268 | 1.4224
287.13 K, x1 = 0.025 | 1.4124
287.13 K, x1 = 0.257 | 1.4219
287.58 K, x1 = 0.026 | 1.4123
287.58 K, x1 = 0.246 | 1.4214
287.98 K, x1 = 0.029 | 1.4123
287.98 K, x1 = 0.238 | 1.421
288.34 K, x1 = 0.03 | 1.4122
288.34 K, x1 = 0.23 | 1.4206
288.64 K, x1 = 0.032 | 1.4122
288.64 K, x1 = 0.224 | 1.4203
288.88 K, x1 = 0.034 | 1.4122
288.88 K, x1 = 0.217 | 1.42
289.09 K, x1 = 0.035 | 1.4122
289.09 K, x1 = 0.214 | 1.4198
289.29 K, x1 = 0.038 | 1.4123
289.29 K, x1 = 0.207 | 1.4195
289.44 K, x1 = 0.039 | 1.4123
289.44 K, x1 = 0.203 | 1.4193
289.63 K, x1 = 0.041 | 1.4123
289.63 K, x1 = 0.196 | 1.419
289.73 K, x1 = 0.042 | 1.4123
289.73 K, x1 = 0.191 | 1.4188
289.86 K, x1 = 0.044 | 1.4124
289.86 K, x1 = 0.19 | 1.4187
289.98 K, x1 = 0.047 | 1.4125
289.98 K, x1 = 0.186 | 1.4185
290.07 K, x1 = 0.05 | 1.4126
290.07 K, x1 = 0.181 | 1.4183
290.16 K, x1 = 0.052 | 1.4127
290.16 K, x1 = 0.179 | 1.4182
290.25 K, x1 = 0.055 | 1.4128
290.25 K, x1 = 0.175 | 1.418
290.31 K, x1 = 0.059 | 1.413
290.31 K, x1 = 0.173 | 1.4179
290.38 K, x1 = 0.062 | 1.4131
290.38 K, x1 = 0.168 | 1.4177
290.43 K, x1 = 0.066 | 1.4133
290.43 K, x1 = 0.166 | 1.4176
290.49 K, x1 = 0.069 | 1.4134
290.49 K, x1 = 0.161 | 1.4174
290.49 K, x1 = 0.598 | 1.4284
290.5 K, x1 = 1 | 1.4338
290.52 K, x1 = 0.071 | 1.4135
290.52 K, x1 = 0.156 | 1.4172
290.56 K, x1 = 0.076 | 1.4137
290.56 K, x1 = 0.1 | 1.4148
290.56 K, x1 = 0.151 | 1.417
290.59 K, x1 = 0.797 | 1.4313
290.59 K, x1 = 0.898 | 1.4327
290.6 K, x1 = 0.078 | 1.4138
290.6 K, x1 = 0.147 | 1.4168
290.61 K, x1 = 0.08 | 1.4139
290.61 K, x1 = 0.144 | 1.4167
290.65 K, x1 = 0.085 | 1.4141
290.65 K, x1 = 0.137 | 1.4164
290.66 K, x1 = 0.087 | 1.4142
290.66 K, x1 = 0.132 | 1.4162
290.67 K, x1 = 0.089 | 1.4143
290.67 K, x1 = 0.091 | 1.4144
290.67 K, x1 = 0.128 | 1.416
290.67 K, x1 = 0.13 | 1.4161
290.67 K, x1 = 0.697 | 1.4299
290.68 K, x1 = 0.094 | 1.4145
290.68 K, x1 = 0.096 | 1.4146
290.68 K, x1 = 0.098 | 1.4147
290.68 K, x1 = 0.118 | 1.4156
290.68 K, x1 = 0.121 | 1.4157
290.68 K, x1 = 0.123 | 1.4158
290.68 K, x1 = 0.125 | 1.4159
290.76 K, x1 = 0.498 | 1.4264
290.93 K, x1 = 0.396 | 1.4243
290.95 K, x1 = 0.2 | 1.4185
291.87 K, x1 = 1 | 1.4334
292.22 K, x1 = 0.898 | 1.4322
292.28 K, x1 = 0.598 | 1.4279
292.3 K, x1 = 0.797 | 1.4308
292.33 K, x1 = 0.498 | 1.4259
292.39 K, x1 = 0.697 | 1.4294
292.67 K, x1 = 0.396 | 1.4237
292.68 K, x1 = 0.2 | 1.4179
292.95 K, x1 = 0.1 | 1.414
293.43 K, x1 = 1 | 1.433
294.01 K, x1 = 0.498 | 1.4253
294.06 K, x1 = 0.898 | 1.4317
294.07 K, x1 = 0.598 | 1.4273
294.09 K, x1 = 0.797 | 1.4303
294.12 K, x1 = 0.697 | 1.4289
294.44 K, x1 = 0.396 | 1.423
294.76 K, x1 = 0.2 | 1.4171
295.04 K, x1 = 0.1 | 1.4132
295.05 K, x1 = 1 | 1.4325
295.73 K, x1 = 0.498 | 1.4248
295.84 K, x1 = 0.598 | 1.4268
295.89 K, x1 = 0.898 | 1.4312
295.91 K, x1 = 0.797 | 1.4299
295.92 K, x1 = 0.697 | 1.4283
296.31 K, x1 = 0.396 | 1.4224
296.55 K, x1 = 0.2 | 1.4165
296.68 K, x1 = 1 | 1.4321
297.32 K, x1 = 0.1 | 1.4124
297.61 K, x1 = 0.797 | 1.4294
297.68 K, x1 = 0.697 | 1.4278
297.69 K, x1 = 0.498 | 1.4241
297.71 K, x1 = 0.598 | 1.4262
297.84 K, x1 = 0.898 | 1.4306
298.31 K, x1 = 0.396 | 1.4217
298.41 K, x1 = 1 | 1.4316
298.67 K, x1 = 0.2 | 1.4158
299.26 K, x1 = 0.1 | 1.4116
299.58 K, x1 = 0.697 | 1.4273
299.58 K, x1 = 0.797 | 1.4288
299.74 K, x1 = 0.498 | 1.4235
299.74 K, x1 = 0.598 | 1.4256
299.92 K, x1 = 0.898 | 1.43
300.25 K, x1 = 1 | 1.4311
300.61 K, x1 = 0.396 | 1.4209
300.68 K, x1 = 0.2 | 1.4151
301.73 K, x1 = 0.1 | 1.4107
302.04 K, x1 = 1 | 1.4305

CCCCCCO [hexan-1-ol] + CCCCCCCC[n+]1ccn(C)c1.F[B-](F)(F)F
x2 = 0
Details | refractive index
293.99 K | 1.4165
295.93 K | 1.4156
297.36 K | 1.4151
298.94 K | 1.4145
300.69 K | 1.4138
303.34 K | 1.4128
304.77 K | 1.4122
306.24 K | 1.4117

CCCCCO [pentan-1-ol] + CCCCCCCC[n+]1ccn(C)c1.F[B-](F)(F)F
x2 = 0
Details | refractive index
290.68 K | 1.4096
292.95 K | 1.4087
295.03 K | 1.4079
297.17 K | 1.4071
299.35 K | 1.4062
301.73 K | 1.4053
